According to ChEMBL document CHEMBL5233280, “Berberine improves liver injury induced glucose and lipid metabolic disorders via alleviating ER stress of hepatocytes and modulating gut microbiota in mice” (Bioorg Med Chem, 2021):
Activity calls are given as the source filed them. The rule behind the calls is not given here.

Key:
Assay type in all cases: functional, organism-based
Mus musculus [1] = test: (§1) Protection against tunicamycin-induced liver injury-mediated hepatic metabolic disorders in C57BL/6 mouse assessed as increase in CD36 gene expression at 150 mg/kg, ig administered for 3 days and on day 3 administered with tunicamycin after 2 hrs and measured after 24 hrs by RT-qPCR analysis; conditions: time 4.0 day
Mus musculus [2] = test: (§2) Protection against tunicamycin-induced ER stress-mediated liver injury in C57BL/6 mouse assessed as plasma ALT level at 75 to 300 mg/kg, ig administered for 3 days and on day 3 administered with tunicamycin after 2 hrs and measured after 24 hrs; conditions: dose 75-300 mg/kg, time 4.0 day
Mus musculus [3] = test: (§3) Protection against tunicamycin-induced liver injury-mediated hepatic metabolic disorders in C57BL/6 mouse assessed as increase in SCD1 gene expression at 75 to 300 mg/kg, ig administered for 3 days and on day 3 administered with tunicamycin after 2 hrs and measured after 24 hrs by RT-qPCR analysis; conditions: dose 75-300 mg/kg, time 4.0 day
Mus musculus [4] = test: Protection against tunicamycin-induced ER stress in C57BL/6 mouse assessed as downregulation of CHOP gene expression in liver at 150 mg/kg, ig administered for 3 days and on day 3 administered with tunicamycin after 2 hrs and measured after 24 hrs by RT-qPCR analysis; conditions: time 4.0 day
Mus musculus [5] = test: (§4) Protection against tunicamycin-induced liver injury-mediated hepatic metabolic disorders in C57BL/6 mouse assessed as LDL-C level in liver at 75 to 300 mg/kg, ig administered for 3 days and on day 3 administered with tunicamycin after 2 hrs and measured after 24 hrs; conditions: dose 75-300 mg/kg, time 4.0 day
Mus musculus [6] = test: Protection against tunicamycin-induced gut microbiota dysbiosis in C57BL/6 mouse assessed as decrease in ratio of Prevotellaceae-to-Erysipelotrichaceae in colon at 75 to 300 mg/kg, ig administered for 3 days and on day 3 administered with tunicamycin after 2 hrs and measured after 24 hrs; conditions: dose 75-300 mg/kg, time 4.0 day
Mus musculus [7] = test: Protection against tunicamycin-induced ER stress-mediated liver injury in C57BL/6 mouse assessed as plasma AST level at 75 to 300 mg/kg, ig administered for 3 days and on day 3 administered with tunicamycin after 2 hrs and measured after 24 hrs; conditions: dose 75-300 mg/kg, time 4.0 day
Mus musculus [8] = test: Protection against tunicamycin-induced liver injury-mediated hepatic metabolic disorders in C57BL/6 mouse assessed as increase in phosphorylated Akt level in liver at 150 mg/kg, ig administered for 3 days and on day 3 administered with tunicamycin after 2 hrs and measured after 24 hrs in presence of insulin by western blot analysis; conditions: time 4.0 day
Mus musculus [9] = test: as §3, with “PPARgamma1” for “SCD1”; conditions: dose 75-300 mg/kg, time 4.0 day
Mus musculus [10] = test: Protection against tunicamycin-induced liver injury-mediated hepatic metabolic disorders in C57BL/6 mouse assessed as HDL-C level in liver at 75 to 300 mg/kg, ig administered for 3 days and on day 3 administered with tunicamycin after 2 hrs and measured after 24 hrs; conditions: dose 75-300 mg/kg, time 4.0 day
Mus musculus [11] = test: as §1, with “reduction” for “increase”, “TRB3” for “CD36”, “expression in liver” for “expression”; conditions: time 4.0 day
Mus musculus [12] = test: Protection against tunicamycin-induced UPR response in C57BL/6 mouse assessed as downregulation of phosphorylated eIF2alpha protein expression in liver at 150 mg/kg, ig administered for 3 days and on day 3 administered with tunicamycin after 2 hrs and measured after 24 hrs by western blot analysis; conditions: time 4.0 day
Mus musculus [13] = test: as §4, with “inhibition of lipid metabolic disorders by measuring increase in plasma TG” for “LDL-C”, “level” for “level in liver”; conditions: dose 75-300 mg/kg, time 4.0 day
Mus musculus [14] = test: Protection against tunicamycin-induced UPR response in C57BL/6 mouse assessed as downregulation of PERK gene expression in liver at 150 mg/kg, ig administered for 3 days and on day 3 administered with tunicamycin after 2 hrs and measured after 24 hrs by RT-qPCR analysis; conditions: time 4.0 day
Mus musculus [15] = test: (§5) Protection against tunicamycin-induced liver injury-mediated hepatic metabolic disorders in C57BL/6 mouse assessed as inhibition of lipid metabolic disorders by measuring decrease in liver TG level at 75 to 300 mg/kg, ig administered for 3 days and on day 3 administered with tunicamycin after 2 hrs and measured after 24 hrs; conditions: dose 75-300 mg/kg, time 4.0 day
Mus musculus [16] = test: as §5, with “increase” for “decrease”, “plasma LDL-C” for “liver TG”; conditions: dose 75-300 mg/kg, time 4.0 day
Mus musculus [17] = test: Protection against tunicamycin-induced UPR response in C57BL/6 mouse assessed as downregulation of PERK protein expression in liver at 150 mg/kg, ig administered for 3 days and on day 3 administered with tunicamycin after 2 hrs and measured after 24 hrs by western blot analysis; conditions: time 4.0 day
Mus musculus [18] = test: Protection against tunicamycin-induced gut microbiota dysbiosis in C57BL/6 mouse assessed as increase in proteobacteria abundance in colon at 75 to 300 mg/kg, ig administered for 3 days and on day 3 administered with tunicamycin after 2 hrs and measured after 24 hrs; conditions: dose 75-300 mg/kg, time 4.0 day
Mus musculus [19] = test: Protection against tunicamycin-induced ER stress in C57BL/6 mouse assessed as downregulation of GRP78 gene expression in liver at 150 mg/kg, ig administered for 3 days and on day 3 administered with tunicamycin after 2 hrs and measured after 24 hrs by RT-qPCR analysis; conditions: time 4.0 day
Mus musculus [20] = test: Protection against tunicamycin-induced liver injury-mediated hepatic metabolic disorders in C57BL/6 mouse assessed as reduction in FGF21 level in serum at 75 to 300 mg/kg, ig administered for 3 days and on day 3 administered with tunicamycin after 2 hrs and measured after 24 hrs by ELISA; conditions: dose 75-300 mg/kg, time 4.0 day
Mus musculus [21] = test: as §3, with “PPARgamma2” for “SCD1”; conditions: dose 75-300 mg/kg, time 4.0 day
Mus musculus [22] = test: Effect on Akt protein expression in liver of tunicamycin-induced liver injury C57BL/6 mouse model at 75 to 300 mg/kg, ig administered for 3 days and on day 3 administered with tunicamycin after 2 hrs and measured after 24 hrs in presence of insulin by western blot analysis; conditions: dose 75-300 mg/kg, time 4.0 day
Mus musculus [23] = test: as §3, with “reduction” for “increase”, “FGF21” for “SCD1”, “expression in liver” for “expression”; conditions: dose 75-300 mg/kg, time 4.0 day
Mus musculus [24] = test: Protection against tunicamycin-induced gut microbiota dysbiosis in C57BL/6 mouse assessed as increase in Epsilonbacteraeota-abundance in colon at 75 to 300 mg/kg, ig administered for 3 days and on day 3 administered with tunicamycin after 2 hrs and measured after 24 hrs; conditions: dose 75-300 mg/kg, time 4.0 day
Mus musculus [25] = test: Reduction in plasma albumin level in tunicamycin-induced liver injury C57BL/6 mouse model at 75 to 300 mg/kg, ig administered for 3 days and on day 3 administered with tunicamycin after 2 hrs and measured after 24 hrs; conditions: dose 75-300 mg/kg, time 4.0 day
Mus musculus [26] = test: Protection against tunicamycin-induced gut microbiota dysbiosis in C57BL/6 mouse assessed as decrease in prevotellaceae-abundance in colon at 75 to 300 mg/kg, ig administered for 3 days and on day 3 administered with tunicamycin after 2 hrs and measured after 24 hrs; conditions: dose 75-300 mg/kg, time 4.0 day
Mus musculus [27] = test: Protection against tunicamycin-induced liver injury-mediated hepatic metabolic disorders in C57BL/6 mouse assessed as increase in CYP7A1 gene expression at 75 to 300 mg/kg, ig administered for 3 days and on day 3 administered with tunicamycin after 2 hrs and measured after 24 hrs by RT-qPCR analysis; conditions: dose 75-300 mg/kg, time 4.0 day
Mus musculus [28] = test: as §3, with “ACCalpha1” for “SCD1”; conditions: dose 75-300 mg/kg, time 4.0 day
Mus musculus [29] = test: Protection against tunicamycin-induced gut microbiota dysbiosis in C57BL/6 mouse assessed as increase in Erysipelotrichaceae- abundance in colon at 75 to 300 mg/kg, ig administered for 3 days and on day 3 administered with tunicamycin after 2 hrs and measured after 24 hrs; conditions: dose 75-300 mg/kg, time 4.0 day
Mus musculus [30] = test: Protection against tunicamycin-induced ER stress in C57BL/6 mouse assessed as downregulation of GRP78 protein expression in liver at 150 mg/kg, ig administered for 3 days and on day 3 administered with tunicamycin after 2 hrs and measured after 24 hrs by western blot analysis; conditions: time 4.0 day
Mus musculus [31] = test: as §5, with “increase” for “decrease”, “plasma TC” for “liver TG”; conditions: dose 75-300 mg/kg, time 4.0 day
Mus musculus [32] = test: Protection against tunicamycin-induced UPR response in C57BL/6 mouse assessed as downregulation of IRE1alpha protein expression in liver at 150 mg/kg, ig administered for 3 days and on day 3 administered with tunicamycin after 2 hrs and measured after 24 hrs by western blot analysis; conditions: time 4.0 day
Mus musculus [33] = test: (§6) Protection against tunicamycin-induced liver injury-mediated hepatic metabolic disorders in C57BL/6 mouse assessed as inhibition of lipid metabolic disorders by measuring increase in plasma VLDL-C level at 75 to 300 mg/kg, ig administered for 3 days and on day 3 administered with tunicamycin after 2 hrs and measured after 24 hrs by ELISA; conditions: dose 75-300 mg/kg, time 4.0 day
Mus musculus [34] = test: as §6, with “HDL-C” for “VLDL-C”, “hrs” for “hrs by ELISA”; conditions: dose 75-300 mg/kg, time 4.0 day
Mus musculus [35] = test: as §2, with “assessed as normal liver histology at 75” for “assessed as plasma ALT level at 75”, “24 hrs by Hematoxylin-eosin staining based microscopic analysis” for “24 hrs”; conditions: dose 75-300 mg/kg, time 4.0 day
Mus musculus [36] = test: Protection against tunicamycin-induced ER stress in C57BL/6 mouse assessed as downregulation of CHOP protein expression in liver at 150 mg/kg, ig administered for 3 days and on day 3 administered with tunicamycin after 2 hrs and measured after 24 hrs by western blot analysis; conditions: time 4.0 day
Mus musculus [37] = test: Protection against tunicamycin-induced gut microbiota dysbiosis in C57BL/6 mouse assessed as increase in Pediococcus-pentosaceus abundance in colon at 150 mg/kg, ig administered for 3 days and on day 3 administered with tunicamycin after 2 hrs and measured after 24 hrs by LEfse analysis; conditions: time 4.0 day
Mus musculus [38] = test: Protection against tunicamycin-induced liver injury-mediated hepatic metabolic disorders in C57BL/6 mouse assessed as increase in FXR gene expression at 75 to 300 mg/kg, ig administered for 3 days and on day 3 administered with tunicamycin after 2 hrs and measured after 24 hrs by RT-qPCR analysis; conditions: dose 75-300 mg/kg, time 4.0 day
Mus musculus [39] = test: Protection against tunicamycin-induced liver injury-mediated hepatic metabolic disorders in C57BL/6 mouse assessed as TC level in liver at 75 to 300 mg/kg, ig administered for 3 days and on day 3 administered with tunicamycin after 2 hrs and measured after 24 hrs; conditions: dose 75-300 mg/kg, time 4.0 day
Mus musculus [40] = test: Protection against tunicamycin-induced ER stress-mediated liver injury in C57BL/6 mouse assessed as normal liver morphology at 75 to 300 mg/kg, ig administered for 3 days and on day 3 administered with tunicamycin after 2 hrs and measured after 24 hrs; conditions: dose 75-300 mg/kg, time 4.0 day
Mus musculus [41] = test: Protection against tunicamycin-induced UPR response in C57BL/6 mouse assessed as downregulation of ATF6 gene expression in liver at 150 mg/kg, ig administered for 3 days and on day 3 administered with tunicamycin after 2 hrs and measured after 24 hrs by RT-qPCR analysis; conditions: time 4.0 day

`COc1ccc2cc3[n+](cc2c1OC)CCc1cc2c(cc1-3)OCO2` was tested, and the Activity (Mus musculus [1]) was “Active”, the Activity (Mus musculus [2]) was “inactive” and the Activity (Mus musculus [3]) was “inactive”. The Activity (Mus musculus [4]) was “Active”, the Activity (Mus musculus [5]) was “inactive” and the Activity (Mus musculus [6]) was “Active”. The Activity (Mus musculus [7]) was “inactive”, the Activity (Mus musculus [8]) was “Active” and the Activity (Mus musculus [9]) was “inactive”. The Activity (Mus musculus [10]) was “inactive”, the Activity (Mus musculus [11]) was “Active” and the Activity (Mus musculus [12]) was “Active”. The Activity (Mus musculus [13]) was “Active”, the Activity (Mus musculus [14]) was “Active” and the Activity (Mus musculus [15]) was “Active”. The Activity (Mus musculus [16]) was “Active”, the Activity (Mus musculus [17]) was “Active” and the Activity (Mus musculus [18]) was “Active”. The Activity (Mus musculus [19]) was “Active”, the Activity (Mus musculus [20]) was “Active” and the Activity (Mus musculus [21]) was “inactive”. The Activity (Mus musculus [22]) was “inactive”, the Activity (Mus musculus [23]) was “Active” and the Activity (Mus musculus [24]) was “Active”. The inhibition (Mus musculus [25]) was “Active”, the Activity (Mus musculus [26]) was “Active” and the Activity (Mus musculus [27]) was “inactive”. The Activity (Mus musculus [28]) was “inactive”, the Activity (Mus musculus [29]) was “Active” and the Activity (Mus musculus [30]) was “Active”. The Activity (Mus musculus [31]) was “Active”, the Activity (Mus musculus [32]) was “Active” and the Activity (Mus musculus [33]) was “Active”. For the same molecule, the Activity (Mus musculus [34]) was “Active”, the Activity (Mus musculus [35]) was “Active” and the Activity (Mus musculus [36]) was “Active”. The Activity (Mus musculus [37]) was “Active”, the Activity (Mus musculus [38]) was “inactive” and the Activity (Mus musculus [39]) was “inactive”. For the same molecule, the Activity (Mus musculus [40]) was “Active” and the Activity (Mus musculus [41]) was “Active”.
